We go through eleven molecules from PubChem BioAssay AID256 (DTP/NCI, 2004).

Several values for one entry are separate records, joined by “and”; a condition that tells them apart may be missing. Equal entries are not always repeated. Toxic doses and inconclusive results are not listed.

The assay concerns CD2F1 mice, L1210 leukemia ip, survival T/C. Kind of assay: NCI In Vivo Anticancer Drug Screen. Data for tumor model L1210 Leukemia (intraperitoneal) in CD2F1 (CDF1) mice. Conditions: higher = longer survival. Summed up: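 Implant tumor; dose compound or vehicle; measure endpoint in both groups; report treated divided by control.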
Where [1] appears, read: endpoint: mean survival time, dose: 50.0 mg/kg/injection, schedule: Q01DX009 (ip), vehicle: saline with Tween-80.
Where [2] appears, read: endpoint: mean survival time, dose: 100.0 mg/kg/injection, schedule: Q01DX009 (ip), vehicle: saline with Tween-80.

For `CCC/C(=N\Nc1ccc([N+](=O)[O-])cc1[N+](=O)[O-])c1ccccc1`, the T/C was 94 % of control (endpoint: mean survival time, dose: 25.0 mg/kg/injection, schedule: Q01DX009 (ip), vehicle: saline with Tween-80); 104 % of control (endpoint: mean survival time, dose: 25.0 mg/kg/injection, schedule: Q04DX003 (ip), vehicle: saline with Tween-80); 105 % of control under setting [1]; 115 % of control (endpoint: mean survival time, dose: 50.0 mg/kg/injection, schedule: Q04DX003 (ip), vehicle: saline with Tween-80); 94 % of control under setting [2]; 98 % of control (endpoint: mean survival time, dose: 100.0 mg/kg/injection, schedule: Q04DX003 (ip), vehicle: saline with Tween-80).

Regarding `N=c1nc(N)nc(N)n1-c1ccccc1`, the T/C was 98 % of control under setting [1]; 102 % of control under setting [2]; 102 % of control (endpoint: mean survival time, dose: 200.0 mg/kg/injection, schedule: Q01DX009 (ip), vehicle: saline with Tween-80).

`CCC(=O)NC1CCCCC1`: the T/C is 95 % of control (endpoint: mean survival time, dose: 100.0 mg/kg/injection, schedule: Q01DX001 (ip), vehicle: saline with Tween-80); 101 % of control (endpoint: mean survival time, dose: 200.0 mg/kg/injection, schedule: Q01DX001 (ip), vehicle: saline with Tween-80); 102 % of control (endpoint: mean survival time, dose: 400.0 mg/kg/injection, schedule: Q01DX001 (ip), vehicle: saline with Tween-80).

In the case of `NCCc1cc(O)c(O)c(O)c1`, the T/C is 96 % of control and 100 % of control (endpoint: mean survival time, dose: 12.5 mg/kg/injection, schedule: Q01DX009 (ip), vehicle: saline); 100 % of control and 102 % of control (endpoint: mean survival time, dose: 25.0 mg/kg/injection, schedule: Q01DX009 (ip), vehicle: saline); 103 % of control and 106 % of control (endpoint: mean survival time, dose: 50.0 mg/kg/injection, schedule: Q01DX009 (ip), vehicle: saline); 122 % of control (endpoint: mean survival time, dose: 100.0 mg/kg/injection, schedule: Q01DX009 (ip), vehicle: saline); 119 % of control and 124 % of control (endpoint: mean survival time, dose: 200.0 mg/kg/injection, schedule: Q01DX009 (ip), vehicle: saline); 119 % of control (endpoint: mean survival time, dose: 400.0 mg/kg/injection, schedule: Q01DX009 (ip), vehicle: saline).

As to `O=C(O)CBr.O=C(O)CBr.[NH-]C1CCCCCCC1[NH-].[Pt+2]` (stereo not given), the T/C (endpoint: mean survival time, dose: 4.68 mg/kg/injection, schedule: Q01DX001 (ip), vehicle: distilled water + Tween-80) is 122 % of control; the T/C (endpoint: mean survival time, dose: 9.36 mg/kg/injection, schedule: Q01DX001 (ip), vehicle: distilled water + Tween-80) is 119 % of control; the T/C (endpoint: mean survival time, dose: 18.75 mg/kg/injection, schedule: Q01DX001 (ip), vehicle: distilled water + Tween-80) is 161 % of control.

Consider `CCCC1=C(CCC)C(F)(F)C1(F)F`, for which the T/C runs as follows: (endpoint: mean survival time, dose: 75.0 mg/kg/injection, schedule: Q01DX001 (ip), vehicle: other) 98 % of control; (endpoint: mean survival time, dose: 150.0 mg/kg/injection, schedule: Q01DX001 (ip), vehicle: other) 96 % of control; (endpoint: mean survival time, dose: 300.0 mg/kg/injection, schedule: Q01DX001 (ip), vehicle: other) 108 % of control.

With `COc1ccc(-n2cnc3c(cnn3C3OC(CO)C(O)C3O)c2=O)cc1` (stereo not given), the T/C (endpoint: median survival time, dose: 12.5 mg/kg/injection, schedule: Q01DX005 (ip), vehicle: saline) is 105 % of control; the T/C (endpoint: median survival time, dose: 25.0 mg/kg/injection, schedule: Q01DX005 (ip), vehicle: saline) is 102 % of control; the T/C (endpoint: median survival time, dose: 50.0 mg/kg/injection, schedule: Q01DX005 (ip), vehicle: saline) is 102 % of control; the T/C (endpoint: median survival time, dose: 100.0 mg/kg/injection, schedule: Q01DX005 (ip), vehicle: saline) is 105 % of control; the T/C (endpoint: median survival time, dose: 200.0 mg/kg/injection, schedule: Q01DX005 (ip), vehicle: saline) was 106 % of control.

`Nc1[nH]c(=S)[nH]c(=O)c1NC(=O)C1CC1`: the T/C by setting is: (endpoint: mean survival time, dose: 100.0 mg/kg/injection, schedule: Q01DX009 (ip), vehicle: saline sonified) 98 % of control; (endpoint: mean survival time, dose: 200.0 mg/kg/injection, schedule: Q01DX009 (ip), vehicle: saline sonified) 92 % of control; (endpoint: mean survival time, dose: 400.0 mg/kg/injection, schedule: Q01DX009 (ip), vehicle: saline sonified) 98 % of control.

As to `Cn1c(Cl)nc2c(Cl)nc(Cl)nc21`, the T/C runs as follows: (endpoint: mean survival time, dose: 50.0 mg/kg/injection, schedule: Q04DX003 (ip), vehicle: Klucel (hydroxypropylcellulose) (HPC)) 100 % of control; (endpoint: mean survival time, dose: 100.0 mg/kg/injection, schedule: Q04DX003 (ip), vehicle: Klucel (hydroxypropylcellulose) (HPC)) 104 % of control.

For `CC1C(=O)OC2C1CCC1(C)C=CC(=O)C(C)(Cl)C21O` (stereo not given), the T/C runs as follows: (endpoint: mean survival time, dose: 100.0 mg/kg/injection, schedule: Q04DX002 (ip), vehicle: saline with Tween-80) 100 % of control; (endpoint: mean survival time, dose: 200.0 mg/kg/injection, schedule: Q04DX002 (ip), vehicle: saline with Tween-80) 100 % of control; (endpoint: mean survival time, dose: 400.0 mg/kg/injection, schedule: Q04DX002 (ip), vehicle: saline with Tween-80) 91 % of control and 87 % of control.

Turning to `COc1cc2c(cc1O)CCCCC2O` (stereo not given), the T/C (endpoint: mean survival time, dose: 50.0 mg/kg/injection, schedule: Q01DX009 (ip), vehicle: other) is 107 % of control; the T/C (endpoint: mean survival time, dose: 100.0 mg/kg/injection, schedule: Q01DX009 (ip), vehicle: other) is 100 % of control; the T/C (endpoint: mean survival time, dose: 200.0 mg/kg/injection, schedule: Q01DX009 (ip), vehicle: other) was 92 % of control.
